Tested on: 521955-158-R2-J5-PDC spheroids with stroma, growth inhibition
Test: Anticancer human tumor 521955-158-R2-J5-PDC patient-derived pancreatic carcinoma cell line growth inhibition [TAK]
Conditions: for IC50: curve of first compound; for viability, T/C: stronger effect = lower value; active = viability on the fitted dose curve at most 10% of control; inactive = the rest
Excerpt: Combinatorial screen of targeted agents with TAK-243 and ipatasertib in multi-cell type tumor spheroids
A high-throughput screen of multi-cell type tumor spheroids was designed to identify active combinations of targeted small molecules and TAK-243 or ipatasertib. Complex spheroids include a stromal component modeled by human endothelial cells (HUVEC) and fibroblasts modeled by human mesenchymal stem cells (MSCs). The concentration ranges selected for each drug and investigational agent were based upon clinically achievable concentrations if the clinical Cmax of the agent was known.
Compounds. The drugs and investigational agents: TAK-243 (785004), ipatasertib (767898), everolimus (733504), selumetinib (741078), bortezomib (756655), trametinib (758246), ixazomib (758254), vemurafenib (761431), dabrafenib (764134), sapanisertib (764658), alpelisib (765974), and copanlisib (816437), were obtained from the National Cancer Institute (NCI) Developmental Therapeutics Program Chemical Repository. The FDA-approved anticancer drug set is available from the NCI Developmental Therapeutics Program. […] The stock solutions were prepared in dimethyl sulfoxide (DMSO, Sigma-Aldrich, St. Louis, MO, cat. D2650) at 800-fold the tested concentration and stored at -70 degrees C prior to their use. All drugs and investigational agents were tested over a range starting from a high concentration at or near the clinical Cmax and decreasing in half-log increments. If the clinical Cmax for an agent had not been determined, the highest concentration tested was 10 microM.
NCI60 Cell Culture. NCI60 cell lines were obtained from the NCI Developmental Therapeutics Program Tumor Repository. For each lot of cells, the Repository performed Applied Biosystems AmpFLSTR Identifiler testing with PCR amplification to confirm consistency with the published Identifier STR profile for each cell line. Cells were kept in continuous culture for no more than 20 passages. The optimal seeding densities for each of the cell lines at each time point assessed were determined prior to performing the concentration response studies. Briefly, the NCI60 human tumor lines were grown as monolayers in RPMI 1640 medium supplemented with 10% FBS and 2 mmol/L L-glutamine.
An additional 2 lines were from the NCI60 cell line panel including melanomas, MALME-3M and SK-MEL-2. Pooled donor human umbilical vein endothelial cells (HUVEC, Lonza, cat. CC-2519) and human mesenchymal stem cells (hMSC, Lonza, cat. PT-2501) were purchased from Lonza (Walkersville, MD).
PDMR cell lines were grown in complete medium (DC medium): Dulbecco's modified Eagle's medium (DMEM)/F12 supplemented with 5% fetal bovine serum (FBS), 2 mM L-glutamine, 100 U/mL penicillin and 100 µg/ml streptomycin, 0.4 µg/ml hydrocortisone, 10 ng/ml epidermal growth factor (EGF) recombinant human protein, 24 µg/mL adenine, and 0.1 mg/mL primocin. During culture from frozen stock vials, PDMR cells were cultured in the same medium containing 10 µM Y-27632 (see Table 3). The PDCs were cultured in complete DMEM/F12 media without 10 microM Y-27632 dihydrochloride for at least two passages prior to the screen. The pooled donor HUVEC and hMSC were cultured in endothelial cell growth medium 2 (PromoCell, Heidelberg, Germany, cat. C-22011) and mesenchymal stem cell growth medium 2 (PromoCell, cat. C-28009), respectively. For all experiments, HUVEC and hMSC were used at passages </=5.
For the pre-screen, cell seeding densities were determined from a titration spanning the range from 5,000 to 313 cells per well. The mct-spheroids including 60% malignant cells, 25% HUVEC and 15% MSC dispensed as a mixture into U-bottom Ultra-Low Attachment 384-well plates (Corning, NY)
High-throughput Drug Combination Screening.
Prior to their inoculation into 384-well plates, malignant cells, HUVEC, and hMSC were removed from T flasks using TrypLE express (Thermo Fisher Scientific, cat. 12605036) and harvested by centrifugation for 5 min at 233 x g. […]
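Note: spheroids exposed to drugs for seven days before readout.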

CC(=O)Nc1cccc(-n2c(=O)n(C3CC3)c(=O)c3c(Nc4ccc(I)cc4F)n(C)c(=O)c(C)c32)c1 + CC(C)NCC(C(=O)N1CCN(c2ncnc3c2C(C)CC3O)CC1)c1ccc(Cl)cc1
0.714 nM: IC50 (second compound 0.3 µM)
inactive: viability, T/C (second compound 0.3 µM, first compound 94.9 pM) 94.6% | viability, T/C (second compound 0.3 µM, first compound 0.0003 µM) 67.8% | viability, T/C (second compound 0.3 µM, first compound 0.000949 µM) 40.3% | viability, T/C (second compound 0.3 µM, first compound 0.003 µM) 33.8% | viability, T/C (second compound 0.3 µM, first compound 0.00949 µM) 29.3% | viability, T/C (second compound 0.3 µM, first compound 0.03 µM) 17.7% | viability, T/C (second compound 0.949 µM, first compound 94.9 pM) 75.4% | viability, T/C (second compound 0.949 µM, first compound 0.0003 µM) 46.7% | viability, T/C (second compound 0.949 µM, first compound 0.000949 µM) 31.9% | viability, T/C (second compound 0.949 µM, first compound 0.003 µM) 19.5% | viability, T/C (second compound 0.949 µM, first compound 0.00949 µM) 11.9% | viability, T/C (second compound 3 µM, first compound 94.9 pM) 62.6% | viability, T/C (second compound 3 µM, first compound 0.0003 µM) 46.9% | viability, T/C (second compound 3 µM, first compound 0.000949 µM) 37.6% | viability, T/C (second compound 3 µM, first compound 0.003 µM) 22.1% | viability, T/C (second compound 3 µM, first compound 0.00949 µM) 12.8% | viability, T/C (second compound 9.49 µM, first compound 94.9 pM) 91.6% | viability, T/C (second compound 9.49 µM, first compound 0.0003 µM) 53.6% | viability, T/C (second compound 9.49 µM, first compound 0.000949 µM) 33.2% | viability, T/C (second compound 9.49 µM, first compound 0.003 µM) 20% | viability, T/C (second compound 9.49 µM, first compound 0.00949 µM) 10.8% | viability, T/C (second compound 30 µM, first compound 94.9 pM) 51.5% | viability, T/C (second compound 30 µM, first compound 0.0003 µM) 38.6% | viability, T/C (second compound 30 µM, first compound 0.000949 µM) 18.3%
0.109 nM: IC50 (second compound 30 µM)
0.267 nM: IC50 (second compound 3 µM)
0.394 nM: IC50 (second compound 9.49 µM)
active: viability, T/C (second compound 0.949 µM, first compound 0.03 µM) 5.36% | viability, T/C (second compound 3 µM, first compound 0.03 µM) 4.27% | viability, T/C (second compound 9.49 µM, first compound 0.03 µM) 4.02% | viability, T/C (second compound 30 µM, first compound 0.003 µM) 8.52% | viability, T/C (second compound 30 µM, first compound 0.00949 µM) 3.18% | viability, T/C (second compound 30 µM, first compound 0.03 µM) 0.96%
0.283 nM: IC50 (second compound 0.949 µM)

CC(C)CC(NC(=O)C(Cc1ccccc1)NC(=O)c1cnccn1)B(O)O (stereo not given) + CC(C)NCC(C(=O)N1CCN(c2ncnc3c2C(C)CC3O)CC1)c1ccc(Cl)cc1
inactive: viability, T/C (second compound 0.3 µM, first compound 31.6 pM) 105% | viability, T/C (second compound 0.3 µM, first compound 0.0001 µM) 101% | viability, T/C (second compound 0.3 µM, first compound 0.000316 µM) 91.4% | viability, T/C (second compound 0.3 µM, first compound 0.001 µM) 92.8% | viability, T/C (second compound 0.3 µM, first compound 0.00316 µM) 93.9% | viability, T/C (second compound 0.949 µM, first compound 31.6 pM) 80.2% | viability, T/C (second compound 0.949 µM, first compound 0.0001 µM) 85.4% | viability, T/C (second compound 0.949 µM, first compound 0.000316 µM) 78.1% | viability, T/C (second compound 0.949 µM, first compound 0.001 µM) 82.6% | viability, T/C (second compound 0.949 µM, first compound 0.00316 µM) 91.8% | viability, T/C (second compound 3 µM, first compound 31.6 pM) 70% | viability, T/C (second compound 3 µM, first compound 0.0001 µM) 81.6% | viability, T/C (second compound 3 µM, first compound 0.000316 µM) 76.6% | viability, T/C (second compound 3 µM, first compound 0.001 µM) 78.2% | viability, T/C (second compound 3 µM, first compound 0.00316 µM) 81.8% | viability, T/C (second compound 9.49 µM, first compound 31.6 pM) 100% | viability, T/C (second compound 9.49 µM, first compound 0.0001 µM) 110% | viability, T/C (second compound 9.49 µM, first compound 0.000316 µM) 111% | viability, T/C (second compound 9.49 µM, first compound 0.001 µM) 94.3% | viability, T/C (second compound 9.49 µM, first compound 0.00316 µM) 113% | viability, T/C (second compound 30 µM, first compound 31.6 pM) 54.3% | viability, T/C (second compound 30 µM, first compound 0.0001 µM) 64.6% | viability, T/C (second compound 30 µM, first compound 0.000316 µM) 56.2% | viability, T/C (second compound 30 µM, first compound 0.001 µM) 56.7% | viability, T/C (second compound 30 µM, first compound 0.00316 µM) 68.6%
5.95 nM: IC50 (second compound 9.49 µM)
5.25 nM: IC50 (second compound 0.949 µM)
5.69 nM: IC50 (second compound 0.3 µM)
3.86 nM: IC50 (second compound 30 µM)
4.97 nM: IC50 (second compound 3 µM)
active: viability, T/C (second compound 0.3 µM, first compound 0.01 µM) 7.88% | viability, T/C (second compound 0.949 µM, first compound 0.01 µM) 7.37% | viability, T/C (second compound 3 µM, first compound 0.01 µM) 7.09% | viability, T/C (second compound 9.49 µM, first compound 0.01 µM) 4.23% | viability, T/C (second compound 30 µM, first compound 0.01 µM) 1.83%

From PubChem BioAssay AID2060353 (Molecular Pharmacology Branch, DTP, NCI, 2025)
